According to article PMC9161374 (Science Translational Medicine, 2022):
Several values for one entry are separate records, joined by “and”; a condition that tells them apart may be missing. Identical values can stand only once. Like-named read-outs stand apart in the source and are kept apart here.

Columns and labels:
SARS-CoV-2 (B.1) = assay: Anti-SARS-CoV-2 activity in Vero E6 cells (viral yield by qRT-PCR); format: cell-based; details: for % Inhibition: listed as Remdsivir
[1] = test system: SARS-CoV-2 (Beta, B.1.351); assay: microbe, parasite or virus in culture; format: cell-based; details: for % Inhibition: beta, listed as Remdsivir
[2] = test system: SARS-CoV-2 (Omicron, B.1.1.529); details: Omicon, Vero E6, replicates, listed as Remdsivir
[3] = CCK-8 cell viability assay; format: cell-based, African green monkey; details: African green monkey; Vero E6 cells, 48 h, CCK8
Protocol: To investigate the effect of drugs on cell viability, Vero E6 cells were seeded in 96-well plates at a density of 20,000 cells per well and were treated with drugs at indicated concentrations (0, 0.01, 0.1, 1, 5, 10, 50, 75, 100, 200 μM) for 48 hours. Cell viability was tested by using Cell Counting Kit-8 (CCK-8, Bimake, B34302). The figures were plotted from cell viability percentage versus the drug concentrations using GraphPad Prism 6 software.
Fig. S4. Cytotoxicity assay of compounds in Vero E6 cells.
Vero E6 cells were plated in 96-well plates and treated with increasing concentrations
of each indicated compound, ranging from 0 to 200 μM, for 48 hours. Cell viability was
tested using Cell Counting Kit-8 (CCK-8). Data are presented as mean ± SD.

[4] = test system: SARS-CoV-2 (Omicron, B.1.1.529); assay: microbe, parasite or virus in culture
[5] = test system: SARS-CoV-2 (Delta, B.1.617.2); assay: microbe, parasite or virus in culture; format: cell-based; details: for % Inhibition: delta, listed as Remdsivir
COVID-19 = test system: COVID-19; parameters: method as in PMID 34937145; details: administered early to non-hospitalized, high-risk patients ref 27; cited from earlier work
[6] = Severe acute respiratory syndrome coronavirus 2, Vero C1008, read-out: EC90 (Confidence 95%)

## CCC(CC)COC(=O)[C@H](C)N[P@](=O)(OC[C@H]1O[C@@](C#N)(c2ccc3c(N)ncnn23)[C@H](O)[C@@H]1O)Oc1ccccc1 [Remdesivir, remdesivir, reference compound]
SARS-CoV-2 (B.1); B.1, 2 uM, Vero E6, replicates, 2 µM
  % Inhibition: 36.1424%
SARS-CoV-2 (B.1); B.1, 5 uM, Vero E6, replicates, 5 µM
  % Inhibition: 93.823%
SARS-CoV-2 (B.1); B.1, 10 uM, Vero E6, replicates, 10 µM
  % Inhibition: 98.7241%
SARS-CoV-2 (B.1); B.1, 50 uM, Vero E6, replicates, 50 µM
  % Inhibition: 99.0519%
SARS-CoV-2 (B.1); Severe acute respiratory syndrome coronavirus 2, Vero C1008, B.1, 0.01 uM, Vero E6, replicates
  inhibition at 0.01 µM: 0%
SARS-CoV-2 (B.1); Severe acute respiratory syndrome coronavirus 2, Vero C1008, B.1, 0.1 uM, Vero E6, replicates
  inhibition at 0.1 µM: 0%
SARS-CoV-2 (B.1); Severe acute respiratory syndrome coronavirus 2, Vero C1008, B.1, 0.25 uM, Vero E6, replicates
  inhibition at 0.25 µM: 0%
SARS-CoV-2 (B.1); Severe acute respiratory syndrome coronavirus 2, Vero C1008, B.1, 0.5 uM, Vero E6, replicates
  inhibition at 0.5 µM: 0%
SARS-CoV-2 (B.1); Severe acute respiratory syndrome coronavirus 2, Vero C1008, B.1, 1 uM, Vero E6, replicates
  inhibition at 1 µM: 0%
SARS-CoV-2 (B.1); Severe acute respiratory syndrome coronavirus 2, Vero C1008, B.1, 2 uM, Vero E6, replicates
  inhibition at 2 µM: 39.1%
SARS-CoV-2 (B.1); Severe acute respiratory syndrome coronavirus 2, Vero C1008, B.1, 5 uM, Vero E6, replicates
  inhibition at 5 µM: 94.6%
SARS-CoV-2 (B.1); Severe acute respiratory syndrome coronavirus 2, Vero C1008, B.1, 10 uM, Vero E6, replicates
  inhibition at 10 µM: 98.6%
SARS-CoV-2 (B.1); Severe acute respiratory syndrome coronavirus 2, Vero C1008, B.1, 50 uM, Vero E6, replicates
  inhibition at 50 µM: 99.2%
SARS-CoV-2 (B.1); [6]
  EC90: 4.25 µM
SARS-CoV-2 (B.1); Severe acute respiratory syndrome coronavirus 2, Vero C1008, MOI 0.05, 48 h
  EC50: 2.28 µM
[1]; Severe acute respiratory syndrome coronavirus 2, Vero C1008, 48 h, read-out: EC50 in Vero E6 cells, SARS-CoV-2 (Beta, B.1.351)
  EC50: 1.78 µM
[1]; Severe acute respiratory syndrome coronavirus 2, Vero C1008, beta, 0.01 uM, Vero E6, replicates
  inhibition at 0.01 µM: 0%
[1]; Severe acute respiratory syndrome coronavirus 2, Vero C1008, beta, 0.1 uM, Vero E6, replicates
  inhibition at 0.1 µM: 0%
[1]; Severe acute respiratory syndrome coronavirus 2, Vero C1008, beta, 0.25 uM, Vero E6, replicates
  inhibition at 0.25 µM: 0%
[1]; Severe acute respiratory syndrome coronavirus 2, Vero C1008, beta, 0.5 uM, Vero E6, replicates
  inhibition at 0.5 µM: 0%
[1]; Severe acute respiratory syndrome coronavirus 2, Vero C1008, beta, 2 uM, Vero E6, replicates
  inhibition at 2 µM: 65.2%
[1]; Severe acute respiratory syndrome coronavirus 2, Vero C1008, beta, 5 uM, Vero E6, replicates
  inhibition at 5 µM: 86.2%
[1]; Severe acute respiratory syndrome coronavirus 2, Vero C1008, beta, 10 uM, Vero E6, replicates
  inhibition at 10 µM: 99.9%
[1]; Severe acute respiratory syndrome coronavirus 2, Vero C1008, beta, 50 uM, Vero E6, replicates
  inhibition at 50 µM: 99.9%
[1]; Severe acute respiratory syndrome coronavirus 2, Vero C1008, read-out: EC90 (Confidence 95%), Vero-E6, Beta B.1.351
  EC90: 5.02 µM
[1]; 1 uM, Vero E6, replicates
  % Inhibition: 35.9868% and 14.2725%
[1]; 2 uM, Vero E6, replicates
  % Inhibition: 49.345%
[1]; 5 uM, Vero E6, replicates
  % Inhibition: 85.4168%
[1]; 10 uM, Vero E6, replicates
  % Inhibition: 99.9589%
[1]; 50 uM, Vero E6, replicates
  % Inhibition: 99.9256%
[2]; 2.5 uM
  % Inhibition: 31.5626% and 77.85% and 88.9906%
[2]; 5 uM
  % Inhibition: 96.6907% and 99.2675%
[2]; 10 uM
  % Inhibition: 99.9718% and 99.9679%
[3]
  CC50 at 48 h: > 50 µM
[4]; Severe acute respiratory syndrome coronavirus 2, Vero C1008, 48 h, read-out: EC50 in Vero E6 cells, SARS-CoV-2 (Omicron, B.1.1.529)
  EC50: 1.24 µM
[4]; Severe acute respiratory syndrome coronavirus 2, Vero C1008, Omicon, 0.069 uM, Vero E6, replicates
  inhibition at 0.069 µM: 0%
[4]; Severe acute respiratory syndrome coronavirus 2, Vero C1008, Omicon, 5 uM, Vero E6, replicates
  inhibition at 5 µM: 96.9%
[4]; Severe acute respiratory syndrome coronavirus 2, Vero C1008, Omicon, 10 uM, Vero E6, replicates
  inhibition at 10 µM: 100%
[4]; [6]
  EC90: 5.69 µM
[5]; Severe acute respiratory syndrome coronavirus 2, Vero C1008, 48 h, read-out: EC50 in Vero E6 cells, SARS-CoV-2 (Delta, B.1.617.2)
  EC50: 1.65 µM
[5]; Severe acute respiratory syndrome coronavirus 2, Vero C1008, delta, 0.01 uM, Vero E6, replicates
  inhibition at 0.01 µM: 0%
[5]; Severe acute respiratory syndrome coronavirus 2, Vero C1008, delta, 0.1 uM, Vero E6, replicates
  inhibition at 0.1 µM: 0%
[5]; Severe acute respiratory syndrome coronavirus 2, Vero C1008, delta, 0.25 uM, Vero E6, replicates
  inhibition at 0.25 µM: 0%
[5]; Severe acute respiratory syndrome coronavirus 2, Vero C1008, delta, 0.5 uM, Vero E6, replicates
  inhibition at 0.5 µM: 0%
[5]; Severe acute respiratory syndrome coronavirus 2, Vero C1008, delta, 1 uM, Vero E6, replicates
  inhibition at 1 µM: 55.7%
[5]; Severe acute respiratory syndrome coronavirus 2, Vero C1008, delta, 2 uM, Vero E6, replicates
  inhibition at 2 µM: 58%
[5]; Severe acute respiratory syndrome coronavirus 2, Vero C1008, delta, 5 uM, Vero E6, replicates
  inhibition at 5 µM: 77.1%
[5]; Severe acute respiratory syndrome coronavirus 2, Vero C1008, delta, 10 uM, Vero E6, replicates
  inhibition at 10 µM: 99.2%
[5]; Severe acute respiratory syndrome coronavirus 2, Vero C1008, delta, 50 uM, Vero E6, replicates
  inhibition at 50 µM: 99.9%
[5]; Severe acute respiratory syndrome coronavirus 2, Vero C1008, read-out: EC90 (Confidence 95%), Vero-E6, Delta B.1.617.2
  EC90: 7.34 µM
[5]; 1 uM, Vero E6, replicates
  % Inhibition: 43.4129%
[5]; 2 uM, Vero E6, replicates
  % Inhibition: 46.5254%
[5]; 5 uM, Vero E6, replicates
  % Inhibition: 77.4749%
[5]; 10 uM, Vero E6, replicates
  % Inhibition: 96.2382%
[5]; 50 uM, Vero E6, replicates
  % Inhibition: 99.3849%
COVID-19
  reduction of the risk of hospitalization or death: 87%
